In US20160367553A1, “Methods and Compositions for Treating Cancers having Acquired Resitance to prior Chemotherapeutic and Targeted Drugs Using Carboxyamidotriazole Orotate” (priority 2015, published 2016):

Assays:
[1] = tested on: metastatic colorectal cancer; test: Phase I clinical study of CTO, patient with refractory metastatic colorectal cancer; type: in vivo, human; conditions: 285 mg/m2/day
refractory NSCLC = test: Phase I clinical study of CTO, patients with refractory NSCLC; type: in vivo, human; conditions: NSCLC patient; for tumor response measured after two cycles: docetaxel, erlotinib, 28 days
[2] = tested on: Akt and Erk1/2 phosphorylation; conditions: exosomes-stimulated HUVEC cell; cited from earlier work
[3] = tested on: refractory head and neck tumor; test: Phase I clinical study of CTO, patient with refractory head and neck tumor; type: in vivo, human; conditions: tumor PBKCA, E545K, 285 mg/m2/day
Procedure: The effectiveness of the CTO treatment is determined by controlled clinical studies. The cancers are evaluated by measuring tumors no more than 14 days before the start of the treatment, and evaluated after 2 cycles of 28 days after day 1 of the administration of the first dose of CTO. The tumor size is measured by the most accurate measurement such as PET-CT, CI scan, MRI scan, x-ray, ultrasound, etc. The criteria for evaluating response are described in the revised Response Evaluation Criteria in Solid Tumors Guidelines, Eisenhauer et al, 1990 and by the Macdonald Criteria for response to high grade gliomas, Macdonald. et al, 1990.
“Progressive disease” is defined as an increase of 25% or greater in the product of the largest perpendicular diameters for at least one bidimensionally measurable tumor, or an increase of 25% or greater at least one undimensionally measurable tumor or appearance of a new lesion or clinical deterioration. […]
“Partial response” means a) for bidimensionally measurable tumors, a decrease of at least 50% in the sum of the products of tire largest perpendicular diameters of all measurable tumors as determined by two observations not less than four weeks apart, b) for undimensionally measurable tumors, a decrease by at least 50% in the sum of the largest diameters of all tumors as determined by two observation not less than four weeks apart. […]

renal cell carcinoma = test: Phase I clinical study of CTO, patient with refractory renal cell carcinoma; type: in vivo, human; conditions: 75 mg/m2/day
[4] = tested on: imatinib mesylate-resistant chronic myeloid leukemia cells; conditions: cited from earlier work
VEGF = conditions: cited from earlier work

| Compound | tumor response measured after two cycles ([1]; tumor BRAF V660E, prior leucovorin, fluorouracil, oxaliplatin, bevacizumab, cetuximab, capecitabine, panitumumab, irinotecan, 28 days, two cycles) | stable disease and partial response registered for ([1]; tumor) | stable disease and partial response registered for (refractory NSCLC; tumor EGFR, ELREATS 746-752 V (exon 19), 219 mg/m2/day) | tumor response measured after two cycles (refractory NSCLC; tumor EGFR, ELREATS 746-752 V (exon 19), prior carboplatin, paclitaxel, cisplatin, gemcitamide, premetrexed, 219 mg/m2/day) | stable disease and partial response registered for (refractory NSCLC; tumor PI3KCA, E545K, 219mg/m2/day) | tumor response measured after two cycles (refractory NSCLC; tumor PI3KCA, E545K, prior paclitaxel, carboplatin, 219mg/m2/day) | effect on Akt and Erk1/2 phosphorylation [2] | stable disease and partial response registered for [3] | tumor response measured after two cycles ([3]; prior cetuximab, cisplatin, taxotere, 28 days, two cycles) | stable disease and partial response registered for (renal cell carcinoma; CTO continued) | tumor response measured after two cycles (renal cell carcinoma; prior IL-2, pegylated IFN, sorafenib, sunitnib, erlotinib, torisel, 28 days, two cycles) | apoptosis by down-regulating bcr-abl [4] | effect on VEGF expression and secretion (VEGF) |
| --- | --- | --- | --- | --- | --- | --- | --- | --- | --- | --- | --- | --- | --- |
| NC(=O)c1nnn(Cc2cc(Cl)c(C(=O)c3ccc(Cl)cc3)c(Cl)c2)c1N.O=C(O)c1cc(=O)[nH]c(=O)[nH]1 [CTO, carboxyamidotriazole orotate] | responded to CTO by not progressing | six | more than twelve | responded by not progressing | more than twelve | responded by not progressing | inhibits Akt and Erk1/2 phosphorylation | more than six | responded by not progressing | over twelve | responded by not progressing | – | – |
| NC(=O)c1nnn(Cc2cc(Cl)c(C(=O)c3ccc(Cl)cc3)c(Cl)c2)c1N [CAI, Carboxyamidotriazole] | – | – | – | – | – | – | – | – | – | – | – | induces apoptosis | inhibits VEGF expression, and secretion |
